Key:
Experiment in all cases: relative viability (nuclei count vs DMSO), 5 days (fraction); higher = more cells survive
Cabozantinib + Foretinib = compound: COc1cc2nccc(Oc3ccc(NC(=O)C4(C(=O)Nc5ccc(F)cc5)CC4)cc3)c2cc1OC [Cabozantinib] + COc1cc2c(Oc3ccc(NC(=O)C4(C(=O)Nc5ccc(F)cc5)CC4)cc3F)ccnc2cc1OCCCN1CCOCC1 [Foretinib] (partner 0.25 µM)
Procedure, shortened: (§1)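 A single step with final 0.05% Triton X-100, 1% formaldehyde and 1 ug/ml Hoechst fixed the cells and stained nuclei 5 days after treatment. Lung cancer cell lines in 1536-well plates had been treated by pin tool the day after seeding with one drug alone or a fixed anchor-drug dose plus five library-drug doses (not always all listed) in √10 steps, and nuclei were counted on 4× images. Relative viability is the ratio of nuclei in treated wells to nuclei in vehicle wells, taken as the median of duplicate plates.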

Zosuquidar + Luminespib = compound: O[C@@H](COc1cccc2ncccc12)CN1CCN([C@@H]2c3ccccc3[C@@H]3[C@H](c4ccccc42)C3(F)F)CC1 [Zosuquidar] + CCNC(=O)c1noc(-c2cc(C(C)C)c(O)cc2O)c1-c1ccc(CN2CCOCC2)cc1 [Luminespib] (partner 0.01 µM)
Procedure, shortened: as §1

Kobe2602 + Foretinib = compound: C1=CC(=CC=C1NC(=S)NNC2=C(C=C(C=C2[N+](=O)[O-])C(F)(F)F)[N+](=O)[O-])F [Kobe2602] + COc1cc2c(Oc3ccc(NC(=O)C4(C(=O)Nc5ccc(F)cc5)CC4)cc3F)ccnc2cc1OCCCN1CCOCC1 [Foretinib] (partner 0.25 µM)
Procedure, shortened: as §1

Zosuquidar + Bortezomib = compound: O[C@@H](COc1cccc2ncccc12)CN1CCN([C@@H]2c3ccccc3[C@@H]3[C@H](c4ccccc42)C3(F)F)CC1 [Zosuquidar] + CC(C)C[C@H](NC(=O)[C@H](Cc1ccccc1)NC(=O)c1cnccn1)B(O)O [Bortezomib] (partner 0.002 µM)
Procedure, shortened: as §1

Row | Cell Line | relative viability (Cabozantinib + Foretinib; first compound 0.02 µM) | relative viability (Cabozantinib + Foretinib; first compound 0.06325 µM) | relative viability (Cabozantinib + Foretinib; first compound 0.2 µM) | relative viability (Cabozantinib + Foretinib; first compound 0.6325 µM) | relative viability (Cabozantinib + Foretinib; first compound 2 µM) | relative viability (Zosuquidar + Luminespib; first compound 0.01 µM) | relative viability (Zosuquidar + Luminespib; first compound 0.03162 µM) | relative viability (Zosuquidar + Luminespib; first compound 0.1 µM) | relative viability (Zosuquidar + Luminespib; first compound 0.3162 µM) | relative viability (Zosuquidar + Luminespib; first compound 1 µM) | relative viability (Kobe2602 + Foretinib; first compound 0.2 µM) | relative viability (Kobe2602 + Foretinib; first compound 0.6325 µM) | relative viability (Kobe2602 + Foretinib; first compound 2 µM) | relative viability (Kobe2602 + Foretinib; first compound 6.325 µM) | relative viability (Kobe2602 + Foretinib; first compound 20 µM) | relative viability (Zosuquidar + Bortezomib; first compound 0.01 µM) | relative viability (Zosuquidar + Bortezomib; first compound 0.03162 µM) | relative viability (Zosuquidar + Bortezomib; first compound 0.1 µM) | relative viability (Zosuquidar + Bortezomib; first compound 0.3162 µM) | relative viability (Zosuquidar + Bortezomib; first compound 1 µM)
1 | SK-MES-1 | 0.936 | 1.1 | 0.948 | 1.09 | 0.802 | 0.72 | 0.732 | 0.732 | 0.881 | 0.938 | 0.922 | 0.99 | 0.918 | 0.99 | 0.898 | – | – | – | – | –
2 | NCI-H522 | – | – | – | – | – | 1.08 | 1.19 | 1.23 | 0.965 | 1.28 | – | – | – | – | – | – | – | – | – | –
3 | LOU-NH91 | 0.89 | 0.997 | – | 0.966 | 0.992 | 0.331 | 0.317 | – | 0.343 | 0.355 | 0.95 | 0.964 | 0.954 | 0.9 | 0.92 | 0.567 | 0.52 | 0.484 | 0.503 | 0.507
4 | NCI-H1355 | 1.08 | 1.1 | 1.03 | 1.08 | 0.949 | 0.741 | 0.752 | 0.644 | 0.822 | 0.824 | 0.953 | 0.945 | 0.921 | 0.933 | 0.95 | 1.15 | 1.26 | 1.1 | 1.33 | 1.24
5 | NCI-H460 | 1.03 | 1.04 | 0.93 | 1 | 1.07 | 0.0346 | 0.0269 | 0.0352 | 0.0358 | 0.0277 | 1.07 | 1 | 0.978 | 1.02 | 0.999 | 1.01 | 1.09 | 1.14 | 1.07 | 1.1
6 | NCI-H1793 | 0.738 | 1.07 | 0.645 | 0.678 | 0.617 | 0.179 | 0.263 | – | 0.207 | 0.207 | 0.847 | 0.803 | 0.684 | 0.728 | 0.863 | – | – | – | – | –
7 | NCI-H358 | 0.662 | 0.839 | 0.668 | 0.662 | 0.652 | 0.334 | 0.356 | 0.441 | 0.347 | 0.413 | 0.721 | 0.756 | 0.605 | 0.698 | 0.845 | – | – | – | – | –
8 | Calu-6 | 1.04 | 0.876 | 0.923 | 0.916 | 0.811 | – | – | – | – | – | 0.858 | 0.935 | 0.894 | 0.86 | 0.875 | 0.955 | 1.05 | 1.13 | 1.05 | 1.15
9 | NCI-H2342 | 1.09 | 1.16 | 1.08 | 1.06 | 0.799 | 0.753 | 0.591 | 0.605 | 0.644 | 0.845 | 1.08 | 1.16 | 0.968 | 0.991 | 1.23 | – | – | – | – | –
10 | NCI-H1299 | 1.12 | 1.12 | 1.16 | 1.11 | 1.13 | – | – | – | – | – | 1.06 | 1.09 | 1.05 | 1.13 | 1.03 | 1.01 | 1.01 | 0.997 | 0.962 | 1.03
11 | NCI-H1623 | 0.783 | 1.05 | 0.695 | 0.828 | 0.874 | 0.371 | 0.511 | 0.539 | 0.451 | 0.476 | 0.966 | 0.954 | 0.79 | 0.809 | 0.854 | – | – | – | – | –
12 | HCC-366 | 0.941 | 0.948 | 0.95 | 0.905 | 0.888 | – | – | – | – | – | 0.945 | 0.969 | 0.966 | 0.919 | 0.959 | 0.946 | 1.03 | 1.06 | 1.08 | 1.07
13 | HCC-44 | – | – | – | – | – | 1.14 | 1.16 | 1.17 | 1.01 | 1.08 | – | – | – | – | – | 0.872 | 0.949 | 0.885 | 0.952 | 0.864
14 | SW 900 | 0.848 | 0.952 | 0.837 | 0.695 | 0.968 | 0.172 | 0.171 | 0.181 | 0.198 | 0.172 | 0.979 | 0.926 | 0.821 | 0.854 | 0.993 | – | – | – | – | –
15 | NCI-H1395 | 0.93 | 1.17 | 1.07 | 1.06 | 0.932 | 0.685 | 0.656 | 0.618 | 0.349 | 0.818 | 0.935 | 0.976 | 0.976 | 0.991 | 1.12 | – | – | – | – | –
16 | NCI-H1944 | 1.04 | 0.938 | 0.9 | 0.895 | 0.867 | 0.76 | 0.655 | 0.722 | 0.785 | 0.651 | 0.891 | 0.91 | 0.847 | 0.885 | 0.976 | – | – | – | – | –
17 | NCI-H2170 | 1.01 | 0.999 | 1 | 0.949 | 0.974 | 0.663 | 0.716 | 0.599 | 0.92 | 0.582 | 0.966 | 1.04 | 1.01 | 1.01 | 0.963 | – | – | – | – | –
18 | IA-LM | 1.15 | 1.15 | 1.22 | 1.23 | 1.24 | – | – | – | – | – | 1.09 | 1.01 | 0.953 | 1.24 | 1.01 | 0.925 | 0.797 | 0.975 | 1.03 | 0.84
19 | A549 | 1.09 | 1.17 | 0.964 | 0.909 | 0.942 | – | – | – | – | – | 0.955 | 0.991 | 0.908 | 0.924 | 0.958 | – | – | – | – | –
20 | NCI-H1792 | – | – | – | – | – | 0.334 | 0.234 | 0.38 | 0.673 | 0.293 | – | – | – | – | – | 0.836 | 0.495 | 0.906 | 0.907 | 0.96
21 | LK-2 | – | 1.27 | – | 1.52 | 0.863 | 0.185 | 0.184 | 0.169 | 0.172 | 0.172 | 1.48 | 1.74 | 1.28 | 1.14 | 1.41 | – | – | – | – | –

Source: the supplement of paper PMC10307832
